Laboratory results taken from DBAASP.
In brackets after ≈: the same amount, converted by molar mass.

Key:
Assay in all cases: ≥ marks a high value that may be exact or a test limit, other limits are often not marked, values filed in µg/mL are converted to µM
[1] = tested on: Staphylococcus aureus ATCC 29213
[2] = tested on: Staphylococcus epidermidis ATCC 12228
[3] = tested on: Salmonella enterica subsp. enterica serovar Typhimurium C77-31
[4] = tested on: Pseudomonas aeruginosa ATCC 27853
[5] = tested on: Staphylococcus aureus ATCC 25923
[6] = tested on: Staphylococcus aureus ATCC 43300
[7] = tested on: Salmonella enterica subsp. enterica serovar Typhimurium ATCC 14028
[8] = tested on: Candida tropicalis CGMCC 2.1975
[9] = tested on: Escherichia coli 078
[10] = tested on: Escherichia coli K88
[11] = tested on: Candida parapsilosis CGMCC 2.3989
[12] = tested on: Candida albicans CGMCC 2.2086
[13] = tested on: Salmonella enterica subsp. enterica serovar Pullorum ATCC 7913
[14] = tested on: Escherichia coli UB1005
[15] = tested on: Escherichia coli K99
[16] = tested on: Staphylococcus epidermidis ATCC 35984
[17] = tested on: Staphylococcus aureus ATCC 33591
[18] = tested on: Klebsiella pneumoniae NCTC 5055
[19] = tested on: Bacillus subtilis ATCC 6633
[20] = tested on: Salmonella typhimurium DA6192
[21] = tested on: Staphylococcus aureus ATCC 6538
[22] = tested on: Escherichia coli ATCC 15597
[23] = tested on: Micrococcus luteus ATCC 49732
[24] = tested on: Cryptococcus neoformans ATCC 32045
[25] = tested on: Candida albicans ATCC 10231
[26] = tested on: Pseudomonas aeruginosa ATCC 10145
[27] = tested on: Escherichia coli ATCC 2592

SMILES | MIC [2] [µM] | MIC [3] [µM] | MIC [4] [µM] | MIC [5] [µM] | MIC [6] [µM] | MIC [7] [µM] | MIC [8] [µM] | MIC [9] [µM] | MIC [10] [µM] | MIC [11] [µM] | MIC [12] [µM] | MIC [13] [µM] | MIC [14] [µM] | MIC [15] [µM] | MIC [17] [µM] | MIC [24] [µM] | MIC [25] [µM] | MIC [26] [µM] | MIC [27] [µM] | further results
CC[C@H](C)[C@H](NC(=O)[C@H](CCCCN)NC(=O)[C@H](C)NC(=O)[C@H](C)N)C(=O)N[C@H](C(=O)N[C@@H](CC(C)C)C(=O)N[C@@H](CC(N)=O)C(=O)N1CCC[C@H]1C(=O)N[C@@H](CCCCN)C(=O)N[C@@H](Cc1ccccc1)C(=O)N[C@@H](CCCN=C(N)N)C(=O)N[C@H]1CSSC[C@@H](C(N)=O)NC(=O)[C@H](Cc2ccccc2)NC(=O)[C@H](C)NC(=O)[C@H](C)NC(=O)[C@H](CCCCN)NC1=O)[C@@H](C)CC [AAKIILNPKFRCKAAFC] | > 128 | ≥ 128 | > 128 | 64 (≈ 121 µg/mL) | > 128 | 64 (≈ 121 µg/mL) | ≥ 128 | ≥ 128 | ≥ 32 | ≥ 128 | ≥ 128 | ≥ 64 | ≥ 64 | ≥ 32 |  |  |  |  |  | MIC [1]: > 128 µM
CC[C@H](C)[C@H](NC(=O)[C@H](CCCN=C(N)N)NC(=O)[C@H](C)NC(=O)[C@H](C)N)C(=O)N[C@H](C(=O)N[C@@H](CC(C)C)C(=O)N[C@@H](CCCN=C(N)N)C(=O)N1CCC[C@H]1C(=O)N[C@@H](CCCN=C(N)N)C(=O)N[C@@H](Cc1ccccc1)C(=O)N[C@@H](CCCN=C(N)N)C(N)=O)[C@@H](C)CC [AARIILRPRFR] | > 128 | 16 (≈ 21.9 µg/mL) | > 128 | > 128 | > 128 | 16 (≈ 21.9 µg/mL) | ≥ 128 | 8 (≈ 10.9 µg/mL) | 16 (≈ 21.9 µg/mL) | ≥ 128 | ≥ 128 | 16 (≈ 21.9 µg/mL) | 8 (≈ 10.9 µg/mL) | 16 (≈ 21.9 µg/mL) |  |  |  |  |  | MIC [1]: > 128 µM
CC[C@H](C)[C@H](NC(=O)[C@H](CCCN=C(N)N)NC(=O)[C@H](C)NC(=O)[C@H](C)N)C(=O)N[C@H](C(=O)N[C@@H](CC(C)C)C(=O)N[C@@H](CCCN=C(N)N)C(=O)N[C@@H](Cc1ccc(O)cc1)C(=O)N[C@@H](CCCN=C(N)N)C(=O)N[C@@H](Cc1ccccc1)C(=O)N[C@@H](CCCN=C(N)N)C(N)=O)[C@@H](C)CC [AARIILRYRFR] | 2 (≈ 2.87 µg/mL) | 4 (≈ 5.74 µg/mL) | 16 (≈ 22.9 µg/mL) | 8 (≈ 11.5 µg/mL) | 4 (≈ 5.74 µg/mL) | 8 (≈ 11.5 µg/mL) | 16 (≈ 22.9 µg/mL) | 4 (≈ 5.74 µg/mL) | 4 (≈ 5.74 µg/mL) | ≥ 64 | ≥ 128 | 4 (≈ 5.74 µg/mL) | 4 (≈ 5.74 µg/mL) | 4 (≈ 5.74 µg/mL) |  |  |  |  |  | 
CC[C@H](C)[C@H](N)C(=O)N[C@H](C(=O)N[C@@H](CCC(=O)O)C(=O)N[C@H](C(=O)N[C@H](C(=O)N[C@H](C(=O)N[C@H](C(=O)N[C@@H](CC(C)C)C(=O)N[C@@H](CC(C)C)C(=O)N[C@@H](CC(N)=O)C(=O)N[C@@H](CCCN=C(N)N)C(=O)N[C@@H](CC(C)C)C(=O)N[C@H](C(=O)N[C@@H](CC(=O)O)C(=O)N[C@@H](CCCN=C(N)N)C(=O)N[C@@H](CC(C)C)C(=O)N[C@@H](CCC(=O)O)C(=O)N[C@@H](CCCCN)C(=O)O)[C@@H](C)O)[C@@H](C)CC)[C@@H](C)O)[C@@H](C)CC)C(C)C)[C@@H](C)O [ITEVITILLNRLTDRLEK] |  |  | > 100 |  |  |  |  |  |  |  |  |  |  |  |  |  |  |  |  | MIC [18]: ≥ 100 µM; MIC [19]: ≥ 100 µM; MIC [20]: ≥ 100 µM; MIC [21]: > 100 µM; MIC [22]: ≥ 100 µM; MIC [23]: ≥ 100 µM
C[C@H](NC(=O)[C@H](Cc1ccccc1)NC(=O)[C@H](CCCCN)NC(=O)[C@H](Cc1ccccc1)NC(=O)[C@H](C)NC(=O)[C@H](Cc1ccccc1)NC(=O)[C@H](CCCCN)NC(=O)[C@H](Cc1ccccc1)NC(=O)[C@H](C)NC(=O)[C@H](Cc1ccccc1)NC(=O)[C@H](CCCCN)NC(=O)[C@H](Cc1ccccc1)NC(=O)[C@H](C)NC(=O)[C@H](Cc1ccccc1)NC(=O)[C@H](CCCCN)NC(=O)[C@H](Cc1ccccc1)NC(=O)[C@H](C)NC(=O)[C@H](Cc1ccccc1)NC(=O)[C@H](CCCCN)NC(=O)[C@H](Cc1ccccc1)NC(=O)[C@H](C)NC(=O)[C@H](Cc1ccccc1)NC(=O)[C@H](CCCCN)NC(=O)[C@H](Cc1ccccc1)NC(=O)[C@H](C)NC(=O)[C@H](Cc1ccccc1)NC(=O)[C@@H](N)CCCCN)C(=O)N[C@@H](Cc1ccccc1)C(=O)O [KFAFKFAFKFAFKFAFKFAFKFAFKFAF] |  |  |  |  |  |  |  |  |  |  |  |  |  |  | ≥ 144 | ≥ 50.9 | > 144 | ≥ 72 | ≥ 288 | 
CC(C)C[C@H](NC(=O)[C@H](CCCCN)NC(=O)[C@H](CC(C)C)NC(=O)[C@H](CCCCN)NC(=O)[C@H](CC(C)C)NC(=O)[C@H](CCCCN)NC(=O)[C@H](CC(C)C)NC(=O)[C@H](CCCCN)NC(=O)[C@H](CC(C)C)NC(=O)[C@H](CCCCN)NC(=O)[C@H](CC(C)C)NC(=O)[C@H](CCCCN)NC(=O)[C@H](CC(C)C)NC(=O)[C@H](CCCCN)NC(=O)[C@H](CC(C)C)NC(=O)[C@H](CCCCN)NC(=O)[C@H](CC(C)C)NC(=O)[C@H](CCCCN)NC(=O)[C@H](CC(C)C)NC(=O)[C@H](CCCCN)NC(=O)[C@H](CC(C)C)NC(=O)[C@H](CCCCN)NC(=O)[C@@H](N)CC(C)C)C(=O)N[C@@H](CCCCN)C(=O)O [LKLKLKLKLKLKLKLKLKLKLKLK] |  |  |  |  |  |  |  |  |  |  |  |  |  |  | ≥ 85.8 | 15.3 (≈ 44.5 µg/mL) | 121 (≈ 354 µg/mL) | 15.4 (≈ 45 µg/mL) | 30.2 (≈ 88 µg/mL) | 

Further lines, with some results ahead:

MIC [2] [µM] | MIC [3] [µM] | MIC [4] [µM] | MIC [5] [µM] | MIC [6] [µM] | MIC [7] [µM] | MIC [8] [µM] | MIC [9] [µM] | MIC [10] [µM] | MIC [11] [µM] | MIC [12] [µM] | MIC [13] [µM] | MIC [14] [µM] | MIC [15] [µM] | MIC [17] [µM] | MIC [24] [µM] | MIC [25] [µM] | MIC [26] [µM] | MIC [27] [µM] | SMILES | further results
 |  | 2.92 (≈ 5.65 µg/mL) | > 264 |  |  |  |  |  |  |  |  |  |  | ≥ 264 |  |  |  |  | CC[C@H](C)[C@H](N)C(=O)NCC(=O)N[C@@H](CCCCN)C(=O)N[C@@H](Cc1ccccc1)C(=O)N[C@@H](CC(C)C)C(=O)N[C@@H](CCCCN)C(=O)N[C@@H](CCCCN)C(=O)N[C@@H](C)C(=O)N[C@@H](CCCCN)C(=O)N[C@@H](CCCCN)C(=O)N[C@@H](Cc1ccccc1)C(=O)NCC(=O)N[C@@H](CCCCN)C(=O)N[C@@H](C)C(=O)N[C@@H](Cc1ccccc1)C(=O)N[C@H](C(=O)N[C@@H](CCCCN)C(N)=O)C(C)C [IGKFLKKAKKFGKAFVK] | MIC [16]: 11.7 µM (≈ 22.6 µg/mL)
 |  | 3.1 (≈ 6.36 µg/mL) |  |  |  |  |  |  |  |  |  |  |  |  |  |  |  |  | CC[C@H](C)[C@H](N)C(=O)N[C@H](C(=O)N[C@@H](CCCCN)C(=O)N[C@H](C(=O)N[C@H](C(=O)N[C@@H](C)C(=O)N[C@@H](CCCCN)C(=O)N[C@@H](CC(C)C)C(=O)N[C@@H](CC(C)C)C(=O)N[C@@H](CC(N)=O)C(=O)N[C@@H](CCCN=C(N)N)C(=O)N[C@@H](CC(C)C)C(=O)N[C@H](C(=O)N[C@@H](CCCCN)C(=O)N[C@H](C(=O)N[C@@H](CC(C)C)C(=O)N[C@@H](CO)C(=O)N[C@@H](CCCCN)C(=O)O)[C@@H](C)CC)[C@@H](C)O)[C@@H](C)CC)C(C)C)[C@@H](C)O [ITKVIAKLLNRLTKILSK] | MIC [18]: 12.5 µM (≈ 25.7 µg/mL); MIC [19]: 4.7 µM (≈ 9.65 µg/mL); MIC [20]: 16.7 µM (≈ 34.3 µg/mL); MIC [21]: 5.2 µM (≈ 10.7 µg/mL); MIC [22]: 3.1 µM (≈ 6.36 µg/mL); MIC [23]: 1.05 µM (≈ 2.16 µg/mL)
 |  |  |  |  |  |  |  |  |  |  |  |  |  | ≥ 130 | 3.62 (≈ 6.93 µg/mL) | 55.3 (≈ 106 µg/mL) | ≥ 65.2 | ≥ 45.9 | C[C@H](NC(=O)[C@H](Cc1ccccc1)NC(=O)[C@H](CCCCN)NC(=O)[C@H](CCCCN)NC(=O)[C@H](C)NC(=O)[C@H](Cc1ccccc1)NC(=O)[C@H](CCCCN)NC(=O)[C@H](CCCCN)NC(=O)[C@H](C)NC(=O)[C@H](Cc1ccccc1)NC(=O)[C@H](CCCCN)NC(=O)[C@H](CCCCN)NC(=O)[C@H](C)NC(=O)[C@H](Cc1ccccc1)NC(=O)[C@@H](N)CCCCN)C(=O)N[C@@H](CCCCN)C(=O)O [KFAKKFAKKFAKKFAK] | 
